This note sets out measurements from ChEMBL document CHEMBL1201862, “PubChem BioAssay data set” (2004).

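How tested: cells in 96-well plates exposed to compound for 48 hours at five concentrations. The concentration for 50% growth inhibition is given as GI50.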 Active and inactive are the calls of the source. No stated cut-off is given here; in the data, active = GI50 up to about 1.1 µM and inactive = higher.

Holding throughout (experiment): NCI-60 cell line screen, 48 h
The test system of assay [1] is 786-0.
The test system of assay [2] is A498.
For assay [3], the system named is ACHN.
The test system of assay [4] is COLO 205.
In assay [5] the test system is HCC 2998.
Assay [6] has as its system HT-29.
Assay [7] relates to K562.
The test system of assay [8] is M14.
Assay [9] concerns MCF7.
Assay [10] has as its system NCI-H460.
Assay [11] relates to NCI/ADR-RES.
Assay [12] concerns OVCAR-5.
Assay [13] concerns RXF 393.
The test system of assay [14] is SK-MEL-28.
Assay [15] relates to SNB-75.
The test system of assay [16] is U-251.
Assay [17] relates to UACC-62.
The subject of assay [18] is SR.

Turning to `CC(/C=N\NC(=S)N1CCCCC1)=N/NC(=S)N1CCCCC1`, the GI50 is 2.03 µM (inactive) in assay [1]; 1.35 µM (inactive) in assay [2]; 0.611 µM (active) in assay [3]; 1.75 µM (inactive) in assay [4]; 1.63 µM (inactive) in assay [5]; 0.931 µM (active) in assay [6]. Further, the GI50 in [7] was 1.12 µM (active); in [8], 1.28 µM (inactive); in [9] it was 1.48 µM (inactive); in assay [10], 0.358 µM (active); in [11], 0.759 µM (active); in assay [12], 2.69 µM (inactive). For the same molecule, the GI50 in assay [13] is 2.01 µM (inactive); in assay [14] it was 4.49 µM (inactive); in assay [15] it was 1.69 µM (inactive); in assay [16] it was 0.815 µM (active); in [17], 0.671 µM (active).

Regarding `Cc1ccc(S(=O)(=O)n2cnc(CC(NC(=O)C3CCC(=O)N3C(=O)OCc3ccccc3)C(=O)N3CCCC3C(=O)NN)c2)cc1` (configuration not stated), the GI50 in [1], in [2], in [3], in assay [4], in [5] and in assay [6] was > 100 µM (inactive) in each case. Further, the GI50 in [7], in assay [8], in assay [9], in assay [10], in [12] and in assay [14] was > 100 µM (inactive) in each case. Moreover, the GI50 in [15], in assay [18] and in assay [16] was > 100 µM (inactive) each time.

For the molecule `CC(C)=CCC/C(C)=C/COC(C)(C)C1=CCC(C)CC1.CC(C)=CCC/C(C)=C/COC1CC(C)CCC1=C(C)C` (configuration not stated), the GI50 in [1], in assay [2], in [3], in assay [4], in assay [5] and in assay [6] was > 100 µM (inactive) throughout. Besides, the GI50 in assay [8] was > 100 µM (inactive); in assay [9], 65.3 µM (inactive); in assay [10], > 100 µM (inactive); in assay [12], > 100 µM (inactive); in assay [13] it was > 100 µM (inactive); in [14], > 100 µM (inactive). For the same molecule, the GI50 in [15] was > 100 µM (inactive); in [18], 18.9 µM (inactive); in [16], > 100 µM (inactive); in [17], > 100 µM (inactive).

For the molecule `Cc1ccc(CCCC(=O)O)cc1C`, the GI50 in [1], in assay [3], in [6], in assay [7], in assay [8] and in assay [10] was > 100 µM (inactive) each time. For the same molecule, the GI50 in [11] is > 100 µM (inactive); in [12], > 100 µM (inactive); in assay [13], > 100 µM (inactive); in assay [14], > 100 µM (inactive); in [15], 39.1 µM (inactive); in assay [18] it was > 100 µM (inactive). Besides, the GI50 in assay [16] and in assay [17] was > 100 µM (inactive) in each case.

As for `O=C1CSc2ccnc(=O)n21`, the GI50 in assay [1], in assay [2], in [3], in [4], in [5] and in assay [8] was > 100 µM (inactive) in each case. Further, the GI50 in [9] is > 100 µM (inactive); in [10], > 100 µM (inactive); in assay [12] it was > 100 µM (inactive); in assay [13], > 100 µM (inactive); in [14], > 100 µM (inactive); in assay [15] it was 93.5 µM (inactive). The GI50 in [18], in assay [16] and in assay [17] was > 100 µM (inactive) each time.
